Measurements from patent US20170355705A1 (GlaxoSmithKline Intellectual Property (No.2) Limited, priority 2014, published 2017).

Molecular target: T1, SIRT1 (Homo sapiens, UniProt Q96EB6)
T1 sequence (Q96EB6 1-747): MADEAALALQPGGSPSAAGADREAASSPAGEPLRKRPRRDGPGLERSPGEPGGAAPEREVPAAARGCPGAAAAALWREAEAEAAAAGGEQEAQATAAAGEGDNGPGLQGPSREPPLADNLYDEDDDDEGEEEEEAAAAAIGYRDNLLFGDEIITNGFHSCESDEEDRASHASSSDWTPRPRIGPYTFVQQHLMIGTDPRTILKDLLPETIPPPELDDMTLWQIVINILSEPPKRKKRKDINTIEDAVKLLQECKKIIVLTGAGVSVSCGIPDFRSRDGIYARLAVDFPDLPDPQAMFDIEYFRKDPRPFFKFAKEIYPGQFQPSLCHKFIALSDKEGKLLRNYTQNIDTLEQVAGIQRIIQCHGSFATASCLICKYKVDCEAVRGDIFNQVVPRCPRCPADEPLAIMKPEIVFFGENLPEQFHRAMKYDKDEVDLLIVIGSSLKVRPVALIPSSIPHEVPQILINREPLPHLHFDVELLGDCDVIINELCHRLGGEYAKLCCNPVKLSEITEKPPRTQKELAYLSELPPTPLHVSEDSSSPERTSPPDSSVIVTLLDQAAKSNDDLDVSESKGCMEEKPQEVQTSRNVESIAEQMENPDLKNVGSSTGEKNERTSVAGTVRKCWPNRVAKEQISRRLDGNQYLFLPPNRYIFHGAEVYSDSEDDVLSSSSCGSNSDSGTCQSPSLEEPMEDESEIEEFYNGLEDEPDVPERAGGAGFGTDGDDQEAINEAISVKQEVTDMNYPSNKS
Experiment: Trp mass spectrometry assay of SIRT1 activity (EC1.5, percent maximum activation)
Assay type: biochemical
Conditions: Trp mass spectrometry assay; for TRP Activity (EC1.5): EC1.5 = concentration giving 150% activation of SIRT1; for TRP MAX RESP (percent maximum fold activation): percent maximum activation of SIRT1
How it was run: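 Mass spectrometry read-out (OAADPR formed, or deacetylated Trp peptide) after a 25 min NAD-dependent deacetylation by E. coli-expressed His-SIRT1, stopped with formic acid.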

| Structure (SMILES) | TRP Activity (EC1.5) | TRP MAX RESP (percent maximum fold activation) |
| --- | --- | --- |
| Cn1cc(-c2ccc3c(n2)N(C(=O)Nc2cnccn2)[C@H]2CCN3C2)cn1 [Example 155, (4S)-7-(1-methyl-1H-pyrazol-4-yl)-N-(pyrazin-2-yl)-3,4-dihydro-1,4-methanopyrido[2,3-b][1,4]diazepine-5(2H)-carboxamide] | B (EC1.5 1-25 μM) | A (Fold activation ≧150%) |
| CCc1ccc(-c2ccc3c(n2)N(C(=O)Nc2cnccn2)[C@H]2CCN3C2)cn1 [Example 156, (4S)-7-(6-ethylpyridin-3-yl)-N-(pyrazin-2-yl)-3,4-dihydro-1,4-methanopyrido[2,3-b][1,4]diazepine-5(2H)-carboxamide] | B (EC1.5 1-25 μM) | A (Fold activation ≧150%) |
| Cc1cc(-c2ccc3c(n2)N(C(=O)Nc2ccc4[nH]ncc4c2)[C@H]2CCN3C2)ccn1 [Example 157, (4S)-N-(1H-indazol-5-yl)-7-(2-methylpyridin-4-yl)-3,4-dihydro-1,4-methanopyrido[2,3-b][1,4]diazepine-5(2H)-carboxamide] | A (EC1.5<1 μM) | A (Fold activation ≧150%) |
| Cc1cc(-c2ccc3c(n2)N(C(=O)Nc2cccnn2)[C@H]2CCN3C2)ccn1 [Example 158, (4S)-7-(2-methylpyridin-4-yl)-N-(pyridazin-3-yl)-3,4-dihydro-1,4-methanopyrido[2,3-b][1,4]diazepine-5(2H)-carboxamide] | B (EC1.5 1-25 μM) | A (Fold activation ≧150%) |
| Cc1cc(-c2ccc3c(n2)N(C(=O)Nc2cnccn2)[C@H]2CCN3C2)c(C)cn1 [Example 159, (4S)-7-(2,5-dimethylpyridin-4-yl)-N-(pyrazin-2-yl)-3,4-dihydro-1,4-methanopyrido[2,3-b][1,4]diazepine-5(2H)-carboxamide] | B (EC1.5 1-25 μM) | A (Fold activation ≧150%) |
| O=C(Nc1cnccn1)N1c2nc(N3CCOCC3)ccc2N2CC[C@H]1C2 [Example 160, (4S)-7-morpholino-N-(pyrazin-2-yl)-3,4-dihydro-1,4-methanopyrido[2,3-b][1,4]diazepine-5(2H)-carboxamide] | B (EC1.5 1-25 μM) | A (Fold activation ≧150%) |
| CCc1cnc(NC(=O)N2c3nc(-c4ccnc(C)c4)ccc3N3CC[C@H]2C3)cn1 [Example 161, (4S)-N-(5-ethylpyrazin-2-yl)-7-(2-methylpyridin-4-yl)-3,4-dihydro-1,4-methanopyrido[2,3-b][1,4]diazepine-5(2H)-carboxamide] | A (EC1.5<1 μM) | A (Fold activation ≧150%) |
| Cc1ncc(-c2ccc3c(n2)N(C(=O)Nc2cnccn2)[C@H]2CCN3C2)o1 [Example 162, (4S)-7-(2-methyloxazol-5-yl)-N-(pyrazin-2-yl)-3,4-dihydro-1,4-methanopyrido[2,3-b][1,4]diazepine-5(2H)-carboxamide] | B (EC1.5 1-25 μM) | A (Fold activation ≧150%) |
| Cc1cc(-c2ccc3c(n2)N(C(=O)Nc2cncnc2)[C@H]2CCN3C2)ccn1 [Example 163, (4S)-7-(2-methylpyridin-4-yl)-N-(pyrimidin-5-yl)-3,4-dihydro-1,4-methanopyrido[2,3-b][1,4]diazepine-5(2H)-carboxamide] | C (EC1.5>25 μM) | A (Fold activation ≧150%) |
| Cc1cc(-c2ccc3c(n2)N(C(=O)Nc2cnc(C4CC4)cn2)[C@H]2CCN3C2)ccn1 [Example 164, (4S)-N-(5-cyclopropylpyrazin-2-yl)-7-(2-methylpyridin-4-yl)-3,4-dihydro-1,4-methanopyrido[2,3-b][1,4]diazepine-5(2H)-carboxamide] | B (EC1.5 1-25 μM) | A (Fold activation ≧150%) |
| Cc1ncc(-c2ccc3c(n2)N(C(=O)Nc2cnccn2)[C@H]2CCN3C2)cn1 [Example 165, (4S)-7-(2-methylpyrimidin-5-yl)-N-(pyrazin-2-yl)-3,4-dihydro-1,4-methanopyrido[2,3-b][1,4]diazepine-5(2H)-carboxamide] | B (EC1.5 1-25 μM) | A (Fold activation ≧150%) |
| Cc1cc(-c2ccc3c(n2)N(C(=O)Nc2cncc(C4CC4)n2)[C@H]2CCN3C2)ccn1 [Example 166, (4S)-N-(6-cyclopropylpyrazin-2-yl)-7-(2-methylpyridin-4-yl)-3,4-dihydro-1,4-methanopyrido[2,3-b][1,4]diazepine-5(2H)-carboxamide] | A (EC1.5<1 μM) | A (Fold activation ≧150%) |
| Cc1cc(-c2ccc3c(n2)N(C(=O)Nc2c[nH]nn2)[C@H]2CCN3C2)ccn1 [Example 167, (4S)-7-(2-methylpyridin-4-yl)-N-(1H-1,2,3-triazol-4-yl)-3,4-dihydro-1,4-methanopyrido[2,3-b][1,4]diazepine-5(2H)-carboxamide] | B (EC1.5 1-25 μM) | A (Fold activation ≧150%) |
| Cc1cc(-c2ccc3c(n2)N(C(=O)N[C@@H](C)c2ccccn2)[C@H]2CCN3C2)ccn1 [Example 168, (4S)-7-(2-methylpyridin-4-yl)-N-((S)-1-(pyridin-2-yl)ethyl)-3,4-dihydro-1,4-methanopyrido[2,3-b][1,4]diazepine-5(2H)-carboxamide] | C (EC1.5>25 μM) | B (Fold Activation <150%) |
| Cc1cc(-c2ccc3c(n2)N(C(=O)N[C@H](C)c2ccccn2)[C@H]2CCN3C2)ccn1 [Example 169, (4S)-7-(2-methylpyridin-4-yl)-N-((R)-1-(pyridin-2-yl)ethyl)-3,4-dihydro-1,4-methanopyrido[2,3-b][1,4]diazepine-5(2H)-carboxamide] | C (EC1.5>25 μM) | B (Fold Activation <150%) |
| Cc1cc(-c2ccc3c(n2)N(C(=O)Nc2cnccn2)[C@H]2CCN3C2)cnc1C [Example 171, (4S)-7-(5,6-dimethylpyridin-3-yl)-N-(pyrazin-2-yl)-3,4-dihydro-1,4-methanopyrido[2,3-b][1,4]diazepine-5(2H)-carboxamide] | A (EC1.5<1 μM) | A (Fold activation ≧150%) |
| CN(C)c1cccc(-c2ccc3c(n2)N(C(=O)Nc2cnccn2)[C@H]2CCN3C2)c1 [Example 172, (4S)-7-(3-(dimethylamino)phenyl)-N-(pyrazin-2-yl)-3,4-dihydro-1,4-methanopyrido[2,3-b][1,4]diazepine-5(2H)-carboxamide] | B (EC1.5 1-25 μM) | A (Fold activation ≧150%) |
| Cc1cc(-c2ccc3c(n2)N(C(=O)N2CCCC2)[C@H]2CCN3C2)ccn1 [Example 173, ((4S)-7-(2-methylpyridin-4-yl)-3,4-dihydro-1,4-methanopyrido[2,3-b][1,4]diazepin-5(2H)-yl)(pyrrolidin-1-yl)methanone] | C (EC1.5>25 μM) | B (Fold Activation <150%) |
| Cc1cc(-c2ccc3c(n2)N(C(=O)N2CCN(C)CC2)[C@H]2CCN3C2)ccn1 [Example 174, (4-methylpiperazin-1-yl)((4S)-7-(2-methylpyridin-4-yl)-3,4-dihydro-1,4-methanopyrido[2,3-b][1,4]diazepin-5(2H)-yl)methanone] | C (EC1.5>25 μM) | B (Fold Activation <150%) |
| Cc1cc(-c2ccc3c(n2)N(C(=O)NC2CCCC2)[C@H]2CCN3C2)ccn1 [Example 175, (4S)-N-cyclopentyl-7-(2-methylpyridin-4-yl)-3,4-dihydro-1,4-methanopyrido[2,3-b][1,4]diazepine-5(2H)-carboxamide] | B (EC1.5 1-25 μM) | A (Fold activation ≧150%) |
| O=C(Nc1cnccn1)N1c2nc(-c3ccn[nH]3)ccc2N2CC[C@H]1C2 [Example 176, (4S)-N-(pyrazin-2-yl)-7-(1H-pyrazol-5-yl)-3,4-dihydro-1,4-methanopyrido[2,3-b][1,4]diazepine-5(2H)-carboxamide] | B (EC1.5 1-25 μM) | A (Fold activation ≧150%) |
| O=C(O)c1cc(-c2ccc3c(n2)N(C(=O)Nc2cnccn2)[C@H]2CCN3C2)ccn1 [Example 177, 4-((4S)-5-(pyrazin-2-ylcarbamoyl)-2,3,4,5-tetrahydro-1,4-methanopyrido[2,3-b][1,4]diazepin-7-yl)picolinic acid] | C (EC1.5>25 μM) | B (Fold Activation <150%) |
